Results from patent US10745382B2 (BRISTOL-MYERS SQUIBB COMPANY, priority 2015, dated 2020).

Molecular target: T1, PD-1/PD-L1 (Homo sapiens, UniProt Q9NZQ7)
T1 construct: made in house; host or cells: HEK293T
Experiment: PD-1/PD-L1 Homogenous Time-Resolved Fluorescence (HTRF) binding assay
Settings: PD-L1-His 10 nM, PD-1-Ig 20 nM; value given as range class; read-out: Range or IC50
Outline: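 Compounds are tested for blocking the PD-1/PD-L1 interaction in dPBS supplemented with 0.1% BSA and 0.05% (v/v) Tween-20. Tagged proteins are detected with Eu-cryptate anti-Ig and APC anti-His at 1 and 20 nM final.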

T1 sequence (Q9NZQ7 with tags, fused parts or gaps): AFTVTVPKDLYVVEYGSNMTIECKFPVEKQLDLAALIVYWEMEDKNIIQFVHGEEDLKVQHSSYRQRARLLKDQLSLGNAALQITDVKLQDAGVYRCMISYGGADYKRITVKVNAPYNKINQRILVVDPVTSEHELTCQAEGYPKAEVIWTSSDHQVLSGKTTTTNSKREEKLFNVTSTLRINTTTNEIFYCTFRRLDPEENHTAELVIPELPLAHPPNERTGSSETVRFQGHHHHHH

| IC50 [nM] | Structure (SMILES) |
| --- | --- |
| 0.21 to 10 | Cc1c(COc2cc(OCc3cncc(C#N)c3)c(C(C)N(C)[C@@H](CO)C(=O)O)cc2Cl)cccc1-c1cccc(OCCCN2CC[C@@H](O)C2)c1C (stereo partly drawn) [Example 4139, N-(1-(5-chloro-2-((5-cyanopyridin-3-yl)methoxy)-4-((3′-(3-((R)-3-hydroxypyrrolidin-1-yl)propoxy)-2,2′-dimethyl-[1,1′-biphenyl]-3-yl)methoxy)phenyl)ethyl)-N-methyl-L-serine] |
| 0.21 to 10 | Cc1c(COc2cc(OCc3cncc(C#N)c3)c(CN3CCCC[C@H]3C(=O)O)cc2Cl)cccc1-c1cccc(O[C@@H](C)CCN2CC[C@@H](O)C2)c1Cl [Example 1522, (S)-1-(5-chloro-4-((2′-chloro-3′-(((S)-4-((R)-3-hydroxypyrrolidin-1-yl)butan-2-yl)oxy)-2-methyl-[1,1′-biphenyl]-3-yl)methoxy)-2-((5-cyanopyridin-3-yl)methoxy)benzyl)piperidine-2-carboxylic acid] |
| 0.21 to 10 | Cc1c(COc2cc(OCc3cncc(C#N)c3)c(CNC3(C(=O)O)CC3)cc2Cl)cccc1-c1cccc(OCCCN2CC[C@@H](O)C2)c1C [Example 4110, (R)-1-((5-chloro-2-((5-cyanopyridin-3-yl)methoxy)-4-((3′-(3-(3-hydroxypyrrolidin-1-yl)propoxy)-2,2′-dimethyl-[1,1′-biphenyl]-3-yl)methoxy)benzyl)amino)cyclopropane-1-carboxylic Acid] |
| 10 to 100 | Cc1c(COc2cc(OCc3cncc(C#N)c3)c(CN3CCCC[C@H]3C(=O)O)cc2Cl)cccc1-c1cccc(C(=O)NCCN2CCS(=O)(=O)CC2)c1C [Example 4004, (S)-1-(5-chloro-2-((5-cyanopyridin-3-yl)methoxy)-4-((3′-((2-(1,1-dioxidothiomorpholino)ethyl)carbamoyl)-2,2′-dimethyl-[1,1′-biphenyl]-3-yl)methoxy)benzyl)piperidine-2-carboxylic Acid] |
| 0.21 to 10 | Cc1c(COc2cc(OCc3cncc(C#N)c3)c(CN3CCCC[C@H]3C(=O)O)cc2Cl)cccc1-c1cccc(OCCCNCCc2ccccn2)c1C [Example 2225, (2S)-1-(5-chloro-2-((5-cyanopyridin-3-yl)methoxy)-4-((2,2′-dimethyl-3′-(3-(2-(pyridin-2-yl)ethylamino)propoxy)biphenyl-3-yl)methoxy)benzyl)piperidine-2-carboxylic Acid] |
| 0.21 to 10 | Cc1c(COc2cc(OCc3cncc(C#N)c3)c(CN[C@H](C(=O)O)C(C)C)cc2Cl)cccc1-c1cccc(OCCCN2CC[C@@H](O)C2)c1C [Example 4150, (5-chloro-2-((5-cyanopyridin-3-yl)methoxy)-4-((3′-(3-((R)-3-hydroxypyrrolidin-1-yl)propoxy)-2,2′-dimethyl-[1,1′-biphenyl]-3-yl)methoxy)benzyl)-L-valine] |
| 0.21 to 10 | Cc1c(COc2cc(OCc3cncc(C#N)c3)c(CN3CCCC[C@H]3C(=O)O)cc2Cl)cccc1-c1cccc(OCCCNCCc2ccncc2)c1C [Example 2210, (2S)-1-(5-chloro-2-((5-cyanopyridin-3-yl)methoxy)-4-((2,2′-dimethyl-3′-(3-(2-(pyridin-4-yl)ethylamino)propoxy)biphenyl-3-yl)methoxy)benzyl)piperidine-2-carboxylic Acid] |
| 0.21 to 10 | Cc1ccc(OCCCN2CC[C@@H](O)C2)cc1-c1cccc(COc2cc(OCc3cncc(C#N)c3)c(CN3CCCC[C@H]3C(=O)O)cc2Cl)c1C [Example 1528, (S)-1-(5-chloro-2-((5-cyanopyridin-3-yl)methoxy)-4-((5′-(3-((R)-3-hydroxypyrrolidin-1-yl)propoxy)-2,2′-dimethyl-[1,1′-biphenyl]-3-yl)methoxy)benzyl)piperidine-2-carboxylic acid] |
| 0.21 to 10 | Cc1c(COc2cc(OCc3cncc(C#N)c3)c(CN3CCCC[C@H]3C(=O)O)cc2Cl)cccc1-c1cccc(OCCCN2CCC(CO)(C(=O)O)C2)c1C (single isomer, unassigned) [Example 1066] |
| 0.21 to 10 | CC(=O)N[C@@H]1CCN(CCCOc2cccc(-c3cccc(COc4cc(OCc5cncc(C#N)c5)c(CN5CCCC[C@H]5C(=O)O)cc4Cl)c3C)c2C)C1 [Example 2250, (2S)-1-(4-((3′-(3-((R)-3-acetamidopyrrolidin-1-yl)propoxy)-2,2′-dimethylbiphenyl-3-yl)methoxy)-5-chloro-2-((5-cyanopyridin-3-yl)methoxy)benzyl)piperidine-2-carboxylic Acid] |
| 0.21 to 10 | Cc1c(COc2cc(OCc3cncc(C#N)c3)c(CN3CCCC[C@H]3C(=O)O)cc2Cl)cccc1-c1cccc(OCCCN2C[C@H]3CC[C@@H](C2)O3)c1C [Example 3046, (S)-1-(4-((3′-(3-((1R,5S)-8-oxa-3-azabicyclo[3.2.1]octan-3-yl)propoxy)-2,2′-dimethyl-[1,1′-biphenyl]-3-yl)methoxy)-5-chloro-2-((5-cyanopyridin-3-yl)methoxy)benzyl)piperidine-2-carboxylic Acid] |

Continued, molecule first:

| Structure (SMILES) | IC50 [nM] |
| --- | --- |
| Cc1c(OCCCN2CC[C@@H](O)C2)cccc1-c1cccc(COc2cc(OCC(F)F)c(CNC(CO)CO)cc2Cl)c1Cl [Example 2318, (R)-2-((5-chloro-4-((2-chloro-3′-(3-(3-hydroxypyrrolidin-1-yl)propoxy)-2′-methyl-[1,1′-biphenyl]-3-yl)methoxy)-2-(2,2-difluoroethoxy)benzyl)amino)propane-1,3-diol] | 0.21 to 10 |
| COC(=O)[C@@H]1CCN(CCCOc2cccc(-c3cccc(COc4cc(OCc5cncc(S(C)(=O)=O)c5)c(CN[C@](C)(CO)C(=O)O)cc4Cl)c3C)c2C)C1 [Example 1082, (R)-2-((5-chloro-4-((3′-(3-((R)-3-(methoxycarbonyl)pyrrolidin-1-yl)propoxy)-2,2′-dimethyl-[1,1′-biphenyl]-3-yl)methoxy)-2-((5-(methylsulfonyl)pyridin-3-yl)methoxy)benzyl)amino)-3-hydroxy-2-methylpropanoic Acid] | 0.21 to 10 |
| Cc1c(COc2cc(OCc3cncc(C#N)c3)c(CNC3(CO)COC3)cc2Cl)cccc1-c1cccc(OCCCN2CC[C@@H](O)C2)c1Cl [Example 2110, (R)-5-((4-chloro-5-((2′-chloro-3′-(3-(3-hydroxypyrrolidin-1-yl)propoxy)-2-methyl-[1,1′-biphenyl]-3-yl)methoxy)-2-(((3-(hydroxymethyl)oxetan-3-yl)amino)methyl)phenoxy)methyl)nicotinonitrile] | 0.21 to 10 |
| N=C(c1cncc(COc2cc(OCc3cccc(-c4cccc(OCCCN5CC[C@@H](O)C5)c4Cl)c3Cl)c(Cl)cc2CNC[C@H](O)CO)c1)N1CC[C@@H](O)C1 [Example 2101, (S)-3-((5-chloro-4-((2,2′-dichloro-3′-(3-((R)-3-hydroxypyrrolidin-1-yl)propoxy)-[1,1′-biphenyl]-3-yl)methoxy)-2-((5-(((R)-3-hydroxypyrrolidin-1-yl)(imino)methyl)pyridin-3-yl)methoxy)benzyl)amino)propane-1,2-diol] | 0.21 to 10 |
| C[C@](CO)(NCc1cc(Cl)c(OCc2cccc(-c3cccc(OCCCN4CCCCC4)c3Cl)c2Cl)cc1OCc1cncc(C#N)c1)C(=O)O [Example 2058, (R)-2-((5-chloro-2-((5-cyanopyridin-3-yl)methoxy)-4-((2,2′-dichloro-3′-(3-(piperidin-1-yl)propoxy)-[1,1′-biphenyl]-3-yl)methoxy)benzyl)amino)-3-hydroxy-2-methylpropanoic Acid] | 0.21 to 10 |
| Cc1c(COCCN2CC[C@@H](O)C2)cccc1-c1cccc(COc2cc(OCc3cncc(C#N)c3)c(CNC(CO)(CO)CO)cc2Cl)c1C [Example 4125, (R)-5-((4-chloro-2-(((1,3-dihydroxy-2-(hydroxymethyl)propan-2-yl)amino)methyl)-5-((3′-((2-(3-hydroxypyrrolidin-1-yl)ethoxy)methyl)-2,2′-dimethyl-[1,1′-biphenyl]-3-yl)methoxy)phenoxy)methyl)nicotinonitrile] | 0.21 to 10 |
| Cc1c(COc2cc(OCc3cncc(C#N)c3)c(CNC(C)(CO)CO)cc2Cl)cccc1-c1cccc(OCCCN2CCCC(CO)C2)c1Cl (stereo not shown) [Example 2098, 5-((4-chloro-5-((2′-chloro-3′-(3-(3-(hydroxymethyl)piperidin-1-yl)propoxy)-2-methyl-[1,1′-biphenyl]-3-yl)methoxy)-2-(((1,3-dihydroxy-2-methylpropan-2-yl)amino)methyl)phenoxy)methyl)nicotinonitrile] | 0.21 to 10 |
| Cc1ccccc1-c1cccc(COc2cc(OCc3cncc(C#N)c3)c(CN[C@@](C)(CO)C(=O)O)cc2Cl)c1C [Example 3020, (S)-2-((5-chloro-2-((5-cyanopyridin-3-yl)methoxy)-4-((2,2′-dimethyl-[1,1′-biphenyl]-3-yl)methoxy)benzyl)amino)-3-hydroxy-2-methylpropanoic Acid] | 0.21 to 10 |
| Cc1c(COc2cc(OCc3cncc(C#N)c3)c(CN(C)C[C@H](O)CO)cc2Cl)cccc1-c1cccc(OCCCN(C)C[C@H](O)CO)c1C [Example 2271, 5-((4-chloro-2-((((S)-2,3-dihydroxypropyl)(methyl)amino)methyl)-5-((3′-(3-(((S)-2,3-dihydroxypropyl)(methyl)amino)propoxy)-2,2′-dimethylbiphenyl-3-yl)methoxy)phenoxy)methyl)nicotinonitrile] | 0.21 to 10 |
| Cc1c(COc2cc(OCc3cncc(C#N)c3)c(CN[C@](C)(CO)C(=O)O)cc2Cl)cccc1-c1cccc(OCCCN2C[C@H](O)C[C@H]2C(N)=O)c1Cl [Example 1086, (R)-2-((4-((3′-(3-((2S,4R)-2-carbamoyl-4-hydroxypyrrolidin-1-yl)propoxy)-2′-chloro-2-methyl-[1,1′-biphenyl]-3-yl)methoxy)-5-chloro-2-((5-cyanopyridin-3-yl)methoxy)benzyl)amino)-3-hydroxy-2-methylpropanoic Acid] | 0.21 to 10 |
| CCN(Cc1cc(Cl)c(OCc2cccc(-c3cccc(OCCCN4CC[C@@H](O)C4)c3Cl)c2C)cc1OCc1cncc(C#N)c1)C(CO)CO [Example 2111, (R)-5-((4-chloro-5-((2′-chloro-3′-(3-(3-hydroxypyrrolidin-1-yl)propoxy)-2-methyl-[1,1′-biphenyl]-3-yl)methoxy)-2-(((1,3-dihydroxypropan-2-yl)(ethyl)amino)methyl)phenoxy)methyl)nicotinonitrile] | 0.21 to 10 |
